Counter-ions that a name gives are not always drawn.
Experiments:
MDCK-MDR1 cells = settings: 5 μM
panel of 393 kinases [1] = molecular target: T1, panel of 393 kinases (Homo sapiens, UniProt Q9BQI3); test: biochemical
T1 construct: purchased Reaction Biology Corporation

panel of 393 kinases [2] = molecular target: T2, panel of 393 kinases (Homo sapiens, UniProt Q15119); test: biochemical; settings: kinase PDK2/PDHK2; control compound
T2 construct: purchased Reaction Biology Corporation

panel of 393 kinases [3] = molecular target: T3, panel of 393 kinases (Homo sapiens, UniProt Q16654); test: biochemical; settings: kinase PDK4/PDHK4; control compound
T3 construct: purchased Reaction Biology Corporation

panel of 393 kinases [4] = molecular target: T4, panel of 393 kinases (Homo sapiens, UniProt Q15120); test: biochemical; settings: kinase PDK3/PDHK3; control compound
T4 construct: purchased Reaction Biology Corporation

panel of 393 kinases [5] = molecular target: T5, panel of 393 kinases (Homo sapiens, UniProt Q15118); test: biochemical; settings: kinase PDK1/PDHK1; control compound
T5 construct: purchased Reaction Biology Corporation

panel of 393 kinases [6] = molecular target: T6, panel of 393 kinases (Homo sapiens, UniProt Q96QT4); test: biochemical; settings: kinase TRPM7/CHAK1; control compound
T6 construct: purchased Reaction Biology Corporation

[7] = Parallel artificial membrane permeability assay (PAMPA); format: in vitro ADME
[8] = system: phosphatidylserine (PtdS) and Akt; test: Translocation of PtdS and Akt to the outer leaflet after HSV-2 (confocal, non-permeabilized); format: cell-based, human; settings: HaCat, HSV-2(G)
PLSCR1 [9] = format: cell-based, monkey; settings: Vero, 30 minutes; drugs 10 μM each
PLSCR1 [10] = test: PLSCR1 phosphorylation after HSV-2 (immunoprecipitation/Western); format: cell-based, human; settings: 10 μM, HaCat, 30 minutes
HaCat cells = test: Cytotoxicity/viability, confluent HaCat cells; format: cell-based, human; settings: 10 μM
Procedure: Results are presented as mean±SEM odu as a percentage of the DMSO control (n=2 independent experiments each conducted in duplicate for C and 1 experiment conducted in duplicate for D). Results in B-D were compared by ANOVA, *p<0.05, **p<0.01, ***p<0.001, ****p<0.0001).
Cell proliferation and viability were determined using the Cell Titer 96® Aqueous One Solution and optical density was determined using a SpectraMax® M5e Molecular Devices multidetection microplate reader. […] The cells were then fixed and stained for activated caspases (red) and SYTOX Green (for integrity of plasma membrane) by Image-iT™ LIVE red Poly Caspase Detection kit. Nuclei were stained with Hoechst. Images were acquired by laser confocal microscope ZeissLive/DuoScan equipped with oil immersion objectives 63×1.1 and captured in an optical slice of 0.37 μm with appropriate filters. Alternatively, immunoblots were prepared and probed with antibodies to cleaved PARP-1 or cleaved caspase 8.

[11] = system: VSV-S (VSV pseudotyped with SARS-CoV-2 spike protein); format: cell-based
HSV-1 K26GFP = test: HSV capsid entry, GFP+ cells by confocal imaging; settings: HaCat, 4 h post-temperature shift; CIMSS 10 μM, anti-Akt 2 μg/ml, cycloheximide 10 μg/ml
panel of 393 kinases [12] = molecular target: T7, panel of 393 kinases (Homo sapiens, UniProt Q13131); test: biochemical; settings: control compound
T7 construct: purchased Reaction Biology Corporation

panel of 393 kinases [13] = molecular target: T8, panel of 393 kinases (Homo sapiens, UniProt P54646); test: biochemical; settings: control compound
T8 construct: purchased Reaction Biology Corporation
T8 sequence (P54646 whole entry): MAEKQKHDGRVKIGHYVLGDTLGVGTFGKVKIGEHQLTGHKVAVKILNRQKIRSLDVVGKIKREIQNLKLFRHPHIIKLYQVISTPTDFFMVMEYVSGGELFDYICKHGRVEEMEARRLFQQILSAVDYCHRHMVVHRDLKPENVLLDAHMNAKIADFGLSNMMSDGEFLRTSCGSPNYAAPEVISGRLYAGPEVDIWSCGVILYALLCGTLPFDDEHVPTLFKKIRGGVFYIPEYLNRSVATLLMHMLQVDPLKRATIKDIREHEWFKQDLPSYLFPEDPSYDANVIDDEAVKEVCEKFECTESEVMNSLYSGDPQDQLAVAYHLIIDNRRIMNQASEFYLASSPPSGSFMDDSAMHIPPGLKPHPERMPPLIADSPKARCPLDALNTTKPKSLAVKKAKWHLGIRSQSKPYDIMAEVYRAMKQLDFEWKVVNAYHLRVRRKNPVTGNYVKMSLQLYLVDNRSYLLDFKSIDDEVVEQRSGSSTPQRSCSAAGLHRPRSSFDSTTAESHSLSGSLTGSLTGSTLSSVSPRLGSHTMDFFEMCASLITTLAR

T7 sequence (Q13131 whole entry): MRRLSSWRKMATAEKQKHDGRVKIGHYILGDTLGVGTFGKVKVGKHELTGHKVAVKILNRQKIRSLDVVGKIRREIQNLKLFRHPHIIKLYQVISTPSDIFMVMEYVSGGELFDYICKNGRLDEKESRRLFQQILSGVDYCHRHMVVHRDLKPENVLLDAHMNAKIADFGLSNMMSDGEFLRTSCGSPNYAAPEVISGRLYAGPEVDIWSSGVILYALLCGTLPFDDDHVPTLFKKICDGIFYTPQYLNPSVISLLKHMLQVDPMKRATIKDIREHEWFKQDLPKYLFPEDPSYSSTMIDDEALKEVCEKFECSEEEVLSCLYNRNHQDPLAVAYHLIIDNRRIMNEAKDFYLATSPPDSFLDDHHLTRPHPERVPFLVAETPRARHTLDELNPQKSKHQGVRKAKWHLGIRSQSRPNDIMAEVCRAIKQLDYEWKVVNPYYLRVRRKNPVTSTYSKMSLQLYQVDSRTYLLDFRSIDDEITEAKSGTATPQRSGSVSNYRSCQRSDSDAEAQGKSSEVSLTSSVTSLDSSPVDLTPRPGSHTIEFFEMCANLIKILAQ
T6 sequence (Q96QT4 whole entry): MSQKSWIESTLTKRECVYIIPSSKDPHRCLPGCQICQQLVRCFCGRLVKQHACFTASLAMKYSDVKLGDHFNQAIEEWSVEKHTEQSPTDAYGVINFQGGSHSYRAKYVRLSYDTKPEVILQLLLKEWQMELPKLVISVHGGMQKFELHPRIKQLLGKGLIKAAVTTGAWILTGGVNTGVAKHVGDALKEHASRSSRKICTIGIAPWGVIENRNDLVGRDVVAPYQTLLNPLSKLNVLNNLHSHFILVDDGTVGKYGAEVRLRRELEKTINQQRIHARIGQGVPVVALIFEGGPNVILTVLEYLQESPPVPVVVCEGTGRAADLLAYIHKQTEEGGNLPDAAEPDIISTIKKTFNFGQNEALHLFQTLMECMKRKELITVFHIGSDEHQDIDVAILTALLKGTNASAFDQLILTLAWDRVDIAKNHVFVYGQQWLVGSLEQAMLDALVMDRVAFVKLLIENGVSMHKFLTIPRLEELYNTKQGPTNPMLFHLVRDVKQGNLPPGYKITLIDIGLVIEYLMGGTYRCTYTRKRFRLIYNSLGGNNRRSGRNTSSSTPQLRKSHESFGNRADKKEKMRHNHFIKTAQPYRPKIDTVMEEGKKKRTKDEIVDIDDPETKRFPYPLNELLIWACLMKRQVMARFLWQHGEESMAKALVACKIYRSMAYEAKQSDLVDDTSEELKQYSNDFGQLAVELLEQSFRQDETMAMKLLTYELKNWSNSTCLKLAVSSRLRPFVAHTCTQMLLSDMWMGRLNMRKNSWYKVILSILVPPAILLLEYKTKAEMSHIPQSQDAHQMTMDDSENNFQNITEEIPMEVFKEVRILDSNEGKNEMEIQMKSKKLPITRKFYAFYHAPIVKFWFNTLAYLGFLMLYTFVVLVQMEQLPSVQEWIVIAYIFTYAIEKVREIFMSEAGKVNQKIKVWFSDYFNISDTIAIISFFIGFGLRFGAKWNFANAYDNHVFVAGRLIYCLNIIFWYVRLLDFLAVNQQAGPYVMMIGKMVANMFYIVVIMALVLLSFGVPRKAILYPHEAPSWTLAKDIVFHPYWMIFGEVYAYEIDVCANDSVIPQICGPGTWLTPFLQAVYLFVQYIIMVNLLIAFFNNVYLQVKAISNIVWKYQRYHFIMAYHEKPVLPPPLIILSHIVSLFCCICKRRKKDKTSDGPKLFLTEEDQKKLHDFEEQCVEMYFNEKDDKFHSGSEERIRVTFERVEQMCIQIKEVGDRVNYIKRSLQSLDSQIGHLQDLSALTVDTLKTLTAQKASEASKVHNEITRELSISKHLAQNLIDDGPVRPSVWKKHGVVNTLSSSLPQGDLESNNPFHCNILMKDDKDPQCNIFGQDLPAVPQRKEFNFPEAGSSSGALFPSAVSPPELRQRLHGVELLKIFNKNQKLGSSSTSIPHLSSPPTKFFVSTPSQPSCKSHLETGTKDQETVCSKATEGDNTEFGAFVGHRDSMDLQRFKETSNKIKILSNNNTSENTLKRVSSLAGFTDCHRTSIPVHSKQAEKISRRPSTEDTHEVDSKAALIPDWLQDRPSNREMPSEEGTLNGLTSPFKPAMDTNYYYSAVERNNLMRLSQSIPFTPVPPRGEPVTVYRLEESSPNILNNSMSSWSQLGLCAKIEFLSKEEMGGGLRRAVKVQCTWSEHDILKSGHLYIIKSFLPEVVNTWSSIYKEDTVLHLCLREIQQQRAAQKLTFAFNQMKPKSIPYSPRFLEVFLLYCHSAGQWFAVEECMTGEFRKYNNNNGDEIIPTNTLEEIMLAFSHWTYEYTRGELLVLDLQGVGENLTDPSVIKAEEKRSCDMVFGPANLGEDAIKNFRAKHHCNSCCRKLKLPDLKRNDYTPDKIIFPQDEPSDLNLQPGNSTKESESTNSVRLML
T5 sequence (Q15118 29-436): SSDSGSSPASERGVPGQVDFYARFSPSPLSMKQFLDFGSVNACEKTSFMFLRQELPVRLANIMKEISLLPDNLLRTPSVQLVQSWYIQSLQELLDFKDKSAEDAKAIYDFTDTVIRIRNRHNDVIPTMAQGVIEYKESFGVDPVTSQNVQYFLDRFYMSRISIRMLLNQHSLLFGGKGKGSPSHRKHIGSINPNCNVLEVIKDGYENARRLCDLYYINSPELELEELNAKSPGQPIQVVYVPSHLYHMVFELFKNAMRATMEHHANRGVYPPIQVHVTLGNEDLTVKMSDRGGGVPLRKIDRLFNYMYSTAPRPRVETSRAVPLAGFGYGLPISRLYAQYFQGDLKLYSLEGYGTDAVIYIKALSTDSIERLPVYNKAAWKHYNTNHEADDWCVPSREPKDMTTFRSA
T3 sequence (Q16654 whole entry): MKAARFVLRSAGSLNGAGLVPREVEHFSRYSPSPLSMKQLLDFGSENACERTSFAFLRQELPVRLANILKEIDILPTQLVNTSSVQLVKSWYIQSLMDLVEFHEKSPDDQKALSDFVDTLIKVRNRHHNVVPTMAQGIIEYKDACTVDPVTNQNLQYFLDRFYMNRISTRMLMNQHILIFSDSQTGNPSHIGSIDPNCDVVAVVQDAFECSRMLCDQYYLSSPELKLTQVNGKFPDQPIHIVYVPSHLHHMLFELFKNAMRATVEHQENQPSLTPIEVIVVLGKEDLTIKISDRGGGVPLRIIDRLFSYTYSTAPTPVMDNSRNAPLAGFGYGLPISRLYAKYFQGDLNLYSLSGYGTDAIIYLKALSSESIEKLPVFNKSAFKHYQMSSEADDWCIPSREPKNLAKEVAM
T1 sequence (Q9BQI3 whole entry): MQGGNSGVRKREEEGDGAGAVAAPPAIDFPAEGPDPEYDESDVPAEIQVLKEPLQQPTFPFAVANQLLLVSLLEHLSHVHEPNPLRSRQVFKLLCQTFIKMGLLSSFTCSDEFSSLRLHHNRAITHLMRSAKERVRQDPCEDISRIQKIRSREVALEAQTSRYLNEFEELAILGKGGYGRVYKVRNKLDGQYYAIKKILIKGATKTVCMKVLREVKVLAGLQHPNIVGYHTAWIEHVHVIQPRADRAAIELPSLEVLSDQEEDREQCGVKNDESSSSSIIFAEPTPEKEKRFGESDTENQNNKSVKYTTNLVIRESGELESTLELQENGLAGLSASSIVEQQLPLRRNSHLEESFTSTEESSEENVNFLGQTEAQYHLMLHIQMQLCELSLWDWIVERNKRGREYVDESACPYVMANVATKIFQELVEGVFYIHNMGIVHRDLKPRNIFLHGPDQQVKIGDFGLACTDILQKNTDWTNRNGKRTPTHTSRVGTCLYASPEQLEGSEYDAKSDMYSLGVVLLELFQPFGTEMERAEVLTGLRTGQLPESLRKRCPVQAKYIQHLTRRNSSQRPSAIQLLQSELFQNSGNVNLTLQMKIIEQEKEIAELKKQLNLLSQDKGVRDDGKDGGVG
T4 sequence (Q15120 whole entry): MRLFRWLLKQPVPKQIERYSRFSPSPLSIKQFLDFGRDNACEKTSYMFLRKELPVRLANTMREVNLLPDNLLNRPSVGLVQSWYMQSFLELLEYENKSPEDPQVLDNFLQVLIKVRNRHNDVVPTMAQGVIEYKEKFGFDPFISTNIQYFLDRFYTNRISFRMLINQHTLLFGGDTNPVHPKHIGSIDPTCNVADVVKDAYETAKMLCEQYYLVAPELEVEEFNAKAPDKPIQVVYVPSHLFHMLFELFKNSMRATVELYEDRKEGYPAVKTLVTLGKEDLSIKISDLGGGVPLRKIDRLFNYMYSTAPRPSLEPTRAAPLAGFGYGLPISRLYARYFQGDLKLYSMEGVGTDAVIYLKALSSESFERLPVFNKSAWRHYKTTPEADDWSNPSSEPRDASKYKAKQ

Molecule: C[C@H]1O[C@@H](O[C@H]2[C@@H](O)C[C@H](O[C@H]3[C@@H](O)C[C@H](O[C@H]4CC[C@@]5(C)[C@H](CC[C@@H]6[C@@H]5C[C@@H](O)[C@]5(C)[C@@H](C7=CC(=O)OC7)CC[C@]65O)C4)O[C@@H]3C)O[C@@H]2C)C[C@H](O)[C@@H]1O [Digoxin]
- Recover %, MDCK Transport (MDCK-MDR1 cells): 96%

Molecule: Cn1cc(-c2ccc3c(c2)CCN3C(=O)Cc2cccc(C(F)(F)F)c2)c2c(N)ncnc21 [GSK-2606414]
- IC50 (panel of 393 kinases [1]): 96.2 nM

Molecule: O=C1Nc2ccc(I)cc2/C1=C/c1cc(Br)c(O)c(Br)c1 [GW5074]
- IC50 (panel of 393 kinases [2]): 5050 nM
- IC50 (panel of 393 kinases [3]): 1890 nM
- IC50 (panel of 393 kinases [4]): 2570 nM
- IC50 (panel of 393 kinases [5]): 8630 nM

Molecule: CCCCCCCCCCCCCCCCn1cc[n+](Cc2ccccc2)c1C [NH125]
- IC50 (panel of 393 kinases [6]): 23400 nM

Molecule: CC(C)NCC(O)COc1cccc2ccccc12 (stereo not drawn) [Propranolol]
- Recover %, MDCK Transport (MDCK-MDR1 cells): 93%
- Recover %, PAMPA ([7]; 100 μM): 85%
- Papp, PAMPA ([7]; 100 μM in PBS pH 7.4, 5 hours, room temperature): 8.991 ×10⁻⁶ cm/s

Molecule: CN[C@@H]1C[C@H]2O[C@@](C)([C@@H]1OC)n1c3ccccc3c3c4c(c5c6ccccc6n2c5c31)C(=O)NC4 [Staurosporine, (9S,10R,11R,13R)-2,3,10,11,12,13-hexahydro-10-methoxy-9-methyl-11-(methylamino)-9,13-epoxy-1H,9H-diindolo[1,2,3-gh:3′,2′,1′-lm]pyrrolo[3,4-j][1,7]benzodiazonin-1-one, reference compound]
- translocation of PtdS and Akt to the outer leaflet of the plasma membrane ([8]; 10 μM): inhibited
- phosphorylation of PLSCR1 after VSV-S (PLSCR1 [9]): inhibited
- phosphorylation of PLSCR1 after HSV-2 (PLSCR1 [10]): inhibited
- cytotoxicity (HaCat cells; confluent HaCat, 72 and 120 hours of exposure): completely cytotoxic
- cytotoxicity (HaCat cells; fully confluent HaCat cells, up to 120 h): cytotoxic within 24 h

Molecule: CN(C)C(=O)COC(=O)Cc1ccc(OC(=O)c2ccc(NC(=N)N)cc2)cc1 [camostat mesylate, reference compound]
- VSV-S infection (plaques or viral yields) [11]: inhibited

Molecule: C[C@@H]1C[C@@H]([C@H](O)CC2CC(=O)NC(=O)C2)C(=O)[C@@H](C)C1 [cycloheximide, reference compound]
- percentage of GFP+ cells (HSV-1 K26GFP): significantly reduced

Molecule: Apyrase
- detection of PtdS or PLSCR1 at the outer leaflet ([8]; 10 U/ml): no discernible effect

Molecule: Ro-31-8220
- IC50 (panel of 393 kinases [12]; kinase AMPK(A1/B1/G1)): 66.8 nM
- IC50 (panel of 393 kinases [12]; kinase AMPK(A1/B1/G2)): 76.8 nM
- IC50 (panel of 393 kinases [12]; kinase AMPK(A1/B1/G3)): 179 nM
- IC50 (panel of 393 kinases [12]; kinase AMPK(A1/B2/G1)): 116 nM
- IC50 (panel of 393 kinases [13]; kinase AMPK (A2/B1/G3)): 296 nM
- IC50 (panel of 393 kinases [13]; kinase AMPK(A2/B1/G1)): 212 nM
- IC50 (panel of 393 kinases [13]; kinase AMPK(A2/B2/G1)): 97.8 nM
- IC50 (panel of 393 kinases [13]; kinase AMPK(A2/B2/G2)): 100 nM
- IC50 (panel of 393 kinases [13]; kinase AMPK(A2/B2/G3)): 186 nM

Reference: patent publication US20250025473A1 (priority 2021, published 2025)
